Assay results from BigSolDB 2.1.

CCOc1ccc(OCC)cc1
solubility (mole fraction)
Conditions	278.15 K	283.15 K	288.15 K	293.15 K	298.15 K	303.15 K	308.15 K	313.15 K	318.15 K
in 2-butanone	0.077	0.0958	0.113	0.136	0.169	0.204	0.257	0.31	0.406
in acetone	0.0531	0.0679	0.0839	0.0969	0.12	0.158	0.204	0.263	0.341
in acetonitrile	0.0204	0.0265	0.0372	0.0498	0.0672	0.102	0.141	0.251	0.473
in dimethyl carbonate	0.0243	0.0339	0.0537	0.072	0.0994	0.145	0.193	0.25	0.342
in ethanol	0.00307	0.00646	0.00901	0.0119	0.0155	0.0189	0.0234	0.031	0.043
in ethyl acetate	0.0775	0.0933	0.113	0.145	0.179	0.218	0.264	0.313	0.372
in ethyl lactate	0.0196	0.0305	0.0458	0.0578	0.0738	0.0875	0.109	0.148	0.213
in isobutyl acetate	0.0332	0.045	0.0655	0.0872	0.112	0.145	0.181	0.225	0.281
in methanol	0.00207	0.00338	0.00473	0.00666	0.00924	0.0115	0.0158	0.0212	0.0309
in methyl acetate	0.0544	0.0685	0.0905	0.112	0.145	0.193	0.24	0.29	0.347
in n-butyl acetate	0.0821	0.11	0.142	0.172	0.213	0.254	0.293	0.347	0.432
in n-propyl acetate	0.0586	0.0753	0.0981	0.133	0.165	0.202	0.255	0.313	0.383
